Among the data in PubChem BioAssay AID200 (DTP/NCI, 2004) are T/C values, retold here.

“And” between values parts separate entries of the source, which are not always exact repeats. Equal entries are not always repeated. Inconclusive results and toxic doses are left out. Where a SMILES comes first, the peptide text is derived from it.

This assay has as its system B6C3F1 mice, B16 melanoma ip, median survival T/C. The assay can be described thus: NCI In Vivo Anticancer Drug Screen. Data for tumor model B16 Melanoma (intraperitoneal) in B6C3F1 mice. To be noted: endpoint: median survival time, schedule: Q01DX009 (ip), higher = longer survival. A digest of the protocol:
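Transplantable tumor in mice; treated vs vehicle control groups; survival or tumor size measured; value = T/C ratio.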

Where [1] appears, read: dose: 1.5 mg/kg/injection, vehicle: saline.
[2] abbreviates: dose: 12.5 mg/kg/injection, vehicle: saline with Tween-80.
The mark [3] stands for this setting: dose: 25.0 mg/kg/injection, vehicle: saline with Tween-80.
[4] abbreviates: dose: 50.0 mg/kg/injection, vehicle: saline with Tween-80.
[5] abbreviates: dose: 100.0 mg/kg/injection, vehicle: saline with Tween-80.
Where [6] appears, read: dose: 200.0 mg/kg/injection, vehicle: saline with Tween-80.
[7] abbreviates: dose: 25.0 mg/kg/injection, vehicle: Klucel (hydroxypropylcellulose) (HPC).
[8] abbreviates: dose: 50.0 mg/kg/injection, vehicle: Klucel (hydroxypropylcellulose) (HPC).
Where [9] appears, read: dose: 100.0 mg/kg/injection, vehicle: Klucel (hydroxypropylcellulose) (HPC).
Setting [10] is: dose: 200.0 mg/kg/injection, vehicle: Klucel (hydroxypropylcellulose) (HPC).
The mark [11] stands for this setting: dose: 50.0 mg/kg/injection, vehicle: saline.
[12] abbreviates: dose: 100.0 mg/kg/injection, vehicle: saline.
Setting [13] is: dose: 200.0 mg/kg/injection, vehicle: saline.
Setting [14] is: dose: 400.0 mg/kg/injection, vehicle: saline.
Setting [15] is: dose: 25.0 mg/kg/injection, vehicle: saline.
Where [16] appears, read: dose: 12.5 mg/kg/injection, vehicle: saline.

On to `CN(C)CCN1C(=O)c2cccc3cc(N)cc(c23)C1=O`, for which the T/C (dose: 1.0 mg/kg/injection, vehicle: saline with Tween-80) is 113 % of control and 102 % of control; the T/C (dose: 2.0 mg/kg/injection, vehicle: acid diluted with saline) is 97 % of control; the T/C (dose: 2.0 mg/kg/injection, vehicle: saline with Tween-80) is 101 % of control and 102 % of control; the T/C (dose: 4.0 mg/kg/injection, vehicle: acid diluted with saline) is 106 % of control; the T/C (dose: 4.0 mg/kg/injection, vehicle: saline with Tween-80) was 112 % of control and 113 % of control and 120 % of control; the T/C (dose: 8.0 mg/kg/injection, vehicle: acid diluted with saline) is 111 % of control. Further, the T/C is, setting by setting: (dose: 8.0 mg/kg/injection, vehicle: saline with Tween-80) 116 % of control and 118 % of control and 120 % of control; (dose: 16.0 mg/kg/injection, vehicle: acid diluted with saline) 110 % of control; (dose: 16.0 mg/kg/injection, vehicle: saline with Tween-80) 87 % of control.
`COc1cccc2c1C(=O)c1c(O)c3c(c(O)c1C2=O)C[C@@](O)(/C(C)=N\O)C[C@@H]3OC1CC(N)C(O)C(C)O1` (stereo partly drawn): the T/C was 160 % of control under setting [1]; 150 % of control (dose: 3.13 mg/kg/injection, vehicle: water); 164 % of control (dose: 6.0 mg/kg/injection, vehicle: saline); 182 % of control (dose: 6.25 mg/kg/injection, vehicle: water); 217 % of control (dose: 12.0 mg/kg/injection, vehicle: saline); 178 % of control (dose: 12.5 mg/kg/injection, vehicle: water). Further, the T/C (dose: 24.0 mg/kg/injection, vehicle: saline) is 204 % of control.
Take `NC(=O)/C=C/C(=O)c1c(Cl)cccc1Cl`: the T/C was 100 % of control (dose: 0.78 mg/kg/injection, vehicle: saline with Tween-80); 103 % of control (dose: 1.56 mg/kg/injection, vehicle: saline with Tween-80); 90 % of control (dose: 3.12 mg/kg/injection, vehicle: saline with Tween-80).
As to `C[Si](C)(C)O/C=C1\CCCCC1=O`, the T/C by setting is: (dose: 6.25 mg/kg/injection, vehicle: saline with Tween-80) 105 % of control; under setting [2], 104 % of control; under setting [3], 113 % of control; under setting [4], 105 % of control; under setting [5], 110 % of control; under setting [6], 97 % of control.
For the molecule `CCCCC(CC)(CC(=N)C(C)(C)C)c1ccccc1` (stereo not drawn), the T/C (dose: 25.0 mg/kg/injection, vehicle: saline + Tween-80 + alcohol) was 104 % of control and the T/C (dose: 50.0 mg/kg/injection, vehicle: saline + Tween-80 + alcohol) is 96 % of control.
`CCCCCC[C@H]([C@H](C)O)n1cnc2c(N)ncnc21`: the T/C (dose: 12.5 mg/kg/injection, vehicle: Klucel (hydroxypropylcellulose) (HPC)) is 122 % of control; the T/C under setting [7] is 88 % of control; the T/C under setting [8] was 111 % of control and 92 % of control; the T/C under setting [9] is 84 % of control and 92 % of control; the T/C under setting [10] is 79 % of control.
Consider `O=C1CCC2=C3C4CCCC5OC6CC(=O)CCC6=C(C6CCCC(OC2C1)C36)C54` (stereo not drawn), for which the T/C by setting is: under setting [11], 102 % of control; under setting [12], 102 % of control; under setting [13], 97 % of control; under setting [14], 96 % of control.
Turning to `O=C(NCc1ccccc1)c1cccnc1`, the T/C was 94 % of control under setting [5]; 94 % of control under setting [6]; 93 % of control (dose: 400.0 mg/kg/injection, vehicle: saline with Tween-80).
In the case of `CCCCCCCCCCCCOP(N)(=O)OCCCCCCCCCCCC`, the T/C under setting [15] was 100 % of control, the T/C under setting [11] was 90 % of control and the T/C under setting [12] is 89 % of control.
As to `[Cl][Pt+2][Cl].[NH-]c1cc2ccccc2cc1[NH-]`, the T/C reads like this: (dose: 20.0 mg/kg/injection, vehicle: saline with Tween-80) 89 % of control; (dose: 40.0 mg/kg/injection, vehicle: saline with Tween-80) 104 % of control; (dose: 80.0 mg/kg/injection, vehicle: saline with Tween-80) 98 % of control; (dose: 160.0 mg/kg/injection, vehicle: saline with Tween-80) 99 % of control; (dose: 320.0 mg/kg/injection, vehicle: saline with Tween-80) 111 % of control.
Consider `O=C(O)CNC(=O)C(Cc1ccccc1)NC(=O)OCc1ccccc1` (stereo not drawn) (HELM PEPTIDE1{[O=C(OCc1ccccc1)[*:2]].[O=C(C(Cc1ccccc1)N[*:1])[*:2]].G}$$$$V2.0), for which the T/C is 94 % of control under setting [7]; 102 % of control under setting [8]; 86 % of control and 94 % of control under setting [9].
`CC(C)C(NC(=O)CCNC(=O)OCc1ccccc1)C(=O)O` (stereo not drawn): the T/C is, setting by setting: under setting [9], 100 % of control; under setting [10], 116 % of control; (dose: 400.0 mg/kg/injection, vehicle: Klucel (hydroxypropylcellulose) (HPC)) 87 % of control.
Turning to `CC[N](CC)[Ge]([CH2]C)[CH2]C.CC[N](CC)[Ge]([CH2]C)[CH2]C`, the T/C was 106 % of control (dose: 1.56 mg/kg/injection, vehicle: saline); 103 % of control (dose: 3.12 mg/kg/injection, vehicle: saline); 103 % of control (dose: 6.25 mg/kg/injection, vehicle: saline); 107 % of control under setting [16]; 108 % of control under setting [15].
In the case of `CN1N=C(N)c2cn(C3OC(COP(=O)(O)O)C(O)C3O)c3ncnc1c23` (stereo not drawn), the T/C was 93 % of control (dose: 12.0 mg/kg/injection, vehicle: Klucel (hydroxypropylcellulose) (HPC)); 93 % of control under setting [7]; 96 % of control under setting [8]; 91 % of control under setting [9].
Turning to `Cc1cc(NCCCCCCNc2cc(C)nc3cc(N(C)C)ccc23)c2ccc(N(C)C)cc2n1`, the T/C (dose: 3.13 mg/kg/injection, vehicle: distilled water + Tween-80 + alcohol) was 100 % of control; the T/C (dose: 6.25 mg/kg/injection, vehicle: distilled water + Tween-80 + alcohol) is 112 % of control; the T/C (dose: 12.5 mg/kg/injection, vehicle: distilled water + Tween-80 + alcohol) was 112 % of control and 122 % of control.
Take `CCN(CC)Cc1cc2[nH]c3c4ccc(Cl)cc4ncc3c2cc1OC`: the T/C under setting [2] was 91 % of control and 102 % of control; the T/C under setting [3] is 112 % of control and 102 % of control; the T/C under setting [4] is 98 % of control and 107 % of control.
With `CONc1ccn(C2OC(CO)C(O)C2O)c(=O)n1` (stereo not drawn), the T/C is, setting by setting: under setting [16], 92 % of control and 98 % of control; under setting [15], 101 % of control and 102 % of control; under setting [11], 103 % of control and 104 % of control; under setting [12], 91 % of control and 106 % of control; under setting [13], 113 % of control and 91 % of control; under setting [14], 89 % of control and 94 % of control.
As for `O=CC(O)C(O)C(O)C(O)C(=O)O.[NH-]C1CCCCC1[NH-].[Pt+2]` (stereo not drawn), the T/C runs as follows: (dose: 0.19 mg/kg/injection, vehicle: saline) 108 % of control; under setting [1], 177 % of control; (dose: 3.0 mg/kg/injection, vehicle: saline) 187 % of control.
Take `CC(C)(C)N(C(=O)OCC1c2ccccc2-c2ccccc21)C(CO)C(=O)O` (stereo not drawn): the T/C under setting [9] was 96 % of control.
